Experimental data reported in patent publication US20040005352A1, “Biologically functionalized porous microspheres” (priority 2002, published 2004).

Assays:
[1] = molecular target: T1, bacteriorhodopsin (BR) (Halobacterium salinarum, UniProt P02945); experiment: FITC response to illumination of bacteriorhodopsin in the microsphere membrane (flow cytometry); conditions: for Activity of BR within the microsphere (proton pumping): BR in lipid bilayer on mesoporous microspheres, illumination
T1 sequence (P02945 14-262): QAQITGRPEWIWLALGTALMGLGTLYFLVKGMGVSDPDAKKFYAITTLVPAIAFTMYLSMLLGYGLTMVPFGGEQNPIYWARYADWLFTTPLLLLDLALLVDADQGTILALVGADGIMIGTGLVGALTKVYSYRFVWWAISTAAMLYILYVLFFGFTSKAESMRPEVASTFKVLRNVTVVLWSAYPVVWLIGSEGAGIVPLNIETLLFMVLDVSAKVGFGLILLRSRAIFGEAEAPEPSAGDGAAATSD
Excerpt: The next investigation was to determine whether a integral membrane protein, bacteriorhodopsin (BR) retained its activity and effect a change on the contents of the microporous microsphere. The natural activity of bacteriorhodpsin is to increase the proton concentration (i.e. pH) upon illumination with the appropriate wavelength of light (ca 510 nm).
The microspheres were then enveloped with liposomes containing 0.1-5% reconstituted bacteriorhodpsin-containing “purple membrane” from Halobacterium salinarum, in egg phosphatidyl choline.

[2] = tested on: lipid bilayer of membrane-enclosed microspheres; assay type: biochemical; conditions: pH 7.4
[3] = molecular target: Human DAT protein (Homo sapiens, UniProt Q01959); conditions: anticipated; [3H]DA uptake, 3 min at 34° C.
Sequence of Human DAT protein (Q01959 whole entry): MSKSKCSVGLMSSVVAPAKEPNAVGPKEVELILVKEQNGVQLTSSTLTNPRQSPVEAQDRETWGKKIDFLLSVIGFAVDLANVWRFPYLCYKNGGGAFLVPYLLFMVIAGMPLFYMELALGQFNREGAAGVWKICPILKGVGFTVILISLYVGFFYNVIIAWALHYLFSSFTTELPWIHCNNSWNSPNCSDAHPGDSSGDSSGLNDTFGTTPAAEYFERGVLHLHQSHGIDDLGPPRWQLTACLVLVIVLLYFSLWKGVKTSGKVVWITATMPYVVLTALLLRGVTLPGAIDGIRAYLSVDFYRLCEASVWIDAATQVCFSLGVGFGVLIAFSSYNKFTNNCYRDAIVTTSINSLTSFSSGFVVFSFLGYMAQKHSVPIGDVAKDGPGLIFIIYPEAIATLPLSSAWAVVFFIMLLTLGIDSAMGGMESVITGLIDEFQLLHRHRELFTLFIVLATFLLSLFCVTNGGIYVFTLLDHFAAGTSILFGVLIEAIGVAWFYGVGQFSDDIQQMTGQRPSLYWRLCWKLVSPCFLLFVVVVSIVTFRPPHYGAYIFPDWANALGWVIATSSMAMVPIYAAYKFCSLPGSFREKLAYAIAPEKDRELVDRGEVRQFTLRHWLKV

## O=[N+]([O-])[O-].O=[N+]([O-])[O-].O=[N+]([O-])[O-].[Gd+3] [Gd(NO3)3, reference compound]
[1]; 3 μM Gd(NO3)3
  Effect on BR: inhibitor of BR

## α-hemolysin
[2]
  Change in Mag-Fluo-4 fluorescence intensity (mean channel fluorescence): increase in fluorescence intensity

## NCCc1ccc(O)c(O)c1 [dopamine]
[3]
  Vmax: 9.0 pmol/10^5 cells/min

B1: BR: integral membrane protein, light driven proton pump; purple membrane from Halobacterium salinarum (protein, UniProt P02945 14-262, looked up)
Bacteriorhodopsin: T1 sequence (P02945 14-262)
[1]; 0.1-5% BR purple membrane in egg phosphatidyl choline, white light
  FITC intensity after several minutes of illumination: decreased
[1]
  Activity of BR within the microsphere (proton pumping): active
[1]; listed as bacteriorhodopsin
  Activity of BR within the microsphere (proton pumping): photo-induced proton pumping
